# Data published in PMC6070540, “SUMO-mediated regulation of NLRP3 modulates inflammasome activity” (Nature Communications, 2018).
# Assays:
# FLAG-tagged human NLRP3 = experiment: Sumoylation of NLRP3 in HEK293T cells (denaturing immunoprecipitation, immunoblot); format: cell-based; settings: for sumoylation of mutant NLRP3: transfected HEK293T cells, compared to WT NLRP3
# Method: (§1) For sumoylation and ubiquitination assays 2 × 10^6 HEK293T cells were plated in 10 cm dishes and transfected with a total of 7.5 μg of DNA the following day. A modified version of “Detection of Sumoylated Proteins by Immunoprecipitation Analysis”[61] was used. Briefly, 16 h post-transfection cells were lysed in SDS lysis buffer (1% SDS, 0.15 M Tris-HCl pH 6.8 and 30% Glycerol). Lysates were boiled for 5 min and diluted 10 × in PBS-T (PBS and 1% Triton-X 100) supplemented with PR-619 (50 μM) and complete protease inhibitors. Cell lysates were sonicated for 20 s then clarified at 4 °C at 13,000 rpm for 10 min. A 20 μl of α-HA beads (SIGMA) or α-FLAG M2 beads (SIGMA) was rotated with cleared protein lysates at 4 °C for 4 h. Furthermore, 4× washes in PBS-T, supplemented with PR-619 (20 μM) and complete protease inhibitors, were performed, and samples eluted by boiling in 60 μl 1× SDS loading dye. Samples were separated by SDS-PAGE using Bolt 8% Bis-Tris plus 1.0 mm 12 well precast protein gels (Life Technologies) in MOPS buffer. Where necessary, the modification smears were quantified using Image Lab Software (Bio-Rad) and normalised to total immunoprecipitated NLRP3 in biological triplicate.
# FLAG-NLRP3 = experiment: Ubiquitylation of NLRP3 in HEK293T cells (immunoprecipitation, immunoblot); format: cell-based, human
# Method: as §1
# caspase-1 = experiment: Caspase-1 cleavage assay in 293T-ASC-caspase-1 cells; format: cell-based, human; settings: transfected 293T-ASC-caspase-1 cells; p20 immunoblot
# Method: For caspase-1 cleavage assays 1 × 10^5 HEK293T-ASC-caspase-1 cells were plated in 24-well plates and transfected with a total of 600 ng of DNA the following day. Cells were lysed in 80 μl of DISC lysis buffer (20 mM Tris-HCL pH 7.5, 150 mM NaCl, 2 mM EDTA, 1% Triton X-100, 10% Glycerol) supplemented with 2% SDS. To shred genomic DNA cell lysates were passed through 0.8 ml columns (Pierce). Lysates were quantified using BCA protein assay kit (Pierce) and 6× SDS loading dye added. Samples were boiled for 5 min before separating by SDS-PAGE using NuPAGE Novex 4–12% Bis-Tris 1.0 mm 20 well precast midi protein gels (Life Technologies) in MES buffer. Caspase-1 p20 antibody (Bally-1, human, Adipogen) was used to detect total and cleaved caspase-1 in cell lysate.
# [1] = test system: endogenous NLRP3 and SUMO-2/-3; experiment: Proximity ligation assay (PLA) NLRP3/SUMO-2/-3; format: cell-based, murine; settings: immortalised WT BMDMs; LPS 4 h followed by 10 µM nigericin 30 min or 5 mM ATP 20 min (ATP n = 1)
# Method: (§2) For immunofluorescence staining, 1.5 × 10^5 cells were plated on 13 mm glass cover slips (VWR). Cells were either left untreated, or treated with LPS (500 ng/ml) for 4 h followed or not by 10 µM nigericin for 30 min or 5 mM ATP for 20 min, before being fixed in 4% paraformaldehyde for 10 min. Following 10 min permeabilization with PBS containing 0.5% Triton X-100, cells were incubated for 1 h in 5% BSA in PBS. Respective primary antibodies were then added as follows: mouse α-NLRP3 (AG-20B-0014, AdipoGen, 1:1000), rabbit α-SUMO-2/3 (4971, Cell Signalling, 1:1000), rabbit α-ASC (AG-25B-0006, AdipoGen, 1:200) and rabbit α-MAPL (ab84067, Abcam, 1:1000). Alexa Fluor 633-conjugated Phalloidin (Invitrogen, 1:500) was used to stain actin filaments. Secondary fluorescent conjugated antibodies were then added as follows: 1:1000 CF488A-donkey α-mouse and 1:1000 CF488-donkey α-rabbit. Nuclei were stained with DAPI (Invitrogen). Cells were visualised by confocal microscopy (objective× 40, Zeiss LSM710). PLA was performed according to the manufacturer’s protocol using the Duolink Detection Kit (Cambridge BioScience Ltd). […] The number of fluorescent spots in 50 cells were quantified using ImageJ and data analysed using two-way ANOVA multiple comparison test or two-tailed Student’s t-test using Prism 7, Graphpad.
# NLRP3 and ASC = experiment: PLA NLRP3/ASC (inflammasome formation); format: cell-based, murine; settings: WT BMDMs; LPS 4 h followed by 10 µM nigericin 30 min or 5 mM ATP 20 min (ATP n = 1)
# Method: as §2
# SUMO-2/-3 proteome = experiment: Global sumoylation (RanGAP1, total SUMO-2/-3 proteome); format: cell-based, human; settings: HEK293T cells, nigericin
# Method: as §1
# NLRP3 and MAPL = experiment: PLA NLRP3/MAPL; format: cell-based, murine; settings: WT BMDMs; untreated, LPS 4 h, or LPS 4 h followed by 10 µM nigericin 30 min; biological triplicate
# Method: as §2
# NLRP3, SUMO-2/-3, MAPL = experiment: Immunofluorescence staining of NLRP3, SUMO-2/-3, MAPL; format: cell-based, murine; settings: BMDMs
# Method: as §2
molecule,measurement,setting,value
NLRP3^K689R: full length NLRP3 with K689 mutated to R,sumoylation of mutant NLRP3,FLAG-tagged human NLRP3,no effect
same,ubiquitylation of mutant NLRP3,"FLAG-NLRP3; transfected HEK293T cells, compared to WT NLRP3",no effect
same,ability of NLRP3 to activate caspase-1,caspase-1,hyperactive in driving caspase-1 cleavage
NLRP3^E692K: reported CAPS disease mutant,sumoylation of mutant NLRP3,FLAG-tagged human NLRP3,did not reduce the overall sumoylation smearing pattern
N#CSc1cc(SC#N)c(N)nc1N [PR-619],appearance of sumoylated NLRP3,"FLAG-tagged human NLRP3; HEK293T cells transfected with FLAG-tagged human NLRP3, endogenous SUMO-2/-3, immunoblot, in the presence vs absence of compound",significantly enhanced the appearance of sumoylated NLPR3
Nc1ncnc2c1ncn2[C@@H]1O[C@H](COP(=O)(O)OP(=O)(O)OP(=O)(O)O)[C@@H](O)[C@H]1O [ATP],NLRP3-SUMO-2/-3 PLA signals upon inflammasome activation,[1],significantly reduced proximity labelling of NLRP3 and SUMO-2/-3
same,NLRP3-ASC inflammasome complexes (PLA),NLRP3 and ASC,specifically formed upon treatment with LPS and nigericin or ATP
NLRP3^E690K: reported CAPS disease mutant,sumoylation of mutant NLRP3,FLAG-tagged human NLRP3,did not reduce the overall sumoylation smearing pattern
CO[C@@H]1C[C@@H](C[C@H]2CC[C@H](C)[C@H]([C@@H](C)C(=O)O)O2)O[C@]2(O[C@](C)([C@H]3CC[C@@](C)([C@@H]4O[C@@H]([C@H]5O[C@@](O)(CO)[C@H](C)C[C@@H]5C)C[C@@H]4C)O3)C[C@H]2C)[C@@H]1C [nigericin],sumoylated NLRP3 after stimulation,"FLAG-tagged human NLRP3; HEK293T cells expressing FLAG-NLRP3, nigericin time course, normalised to total immunoprecipitated NLRP3, three independent experiments",induced notable reduction of sumoylated NLRP3
same,ubiquitylated NLRP3 after stimulation,"FLAG-NLRP3; HEK293T cells expressing FLAG-NLRP3, nigericin time course, three independent experiments",less ubiquitylated
same,sumoylation of RanGAP1,SUMO-2/-3 proteome; selectivity control,remained sumoylated
same,overall smearing pattern of total SUMO-2/-3 proteome,SUMO-2/-3 proteome; total cell lysates,no apparent change
same,NLRP3-SUMO-2/-3 PLA signals upon inflammasome activation,[1],significantly reduced proximity labelling of NLRP3 and SUMO-2/-3
same,NLRP3-ASC inflammasome complexes (PLA),NLRP3 and ASC,specifically formed upon treatment with LPS and nigericin or ATP
same,MAPL/NLRP3 proximity signals,NLRP3 and MAPL,almost completely abolished MAPL/NLRP3 proximity signals
same,general expression of NLRP3 and SUMO-2/-3,"NLRP3, SUMO-2/-3, MAPL; LPS and nigericin, immunofluorescence",unaffected
same,MAPL staining,"NLRP3, SUMO-2/-3, MAPL; nigericin, conventional immunofluorescence",caused a decrease in MAPL staining
"WT MAPL: mitochondrial-anchored protein ligase, SUMO E3 ligase (protein, left off: 2xHA, end not stated, kept | 2xSTREP, end not stated, state not stated) MESGGRPSLCQFILLGTTSVVTAALYSVYRQKARVSQELKGAKKVHLGEDLKSILSEAPGKCVPYAVIEGAVRSVKETLNSQFVENCKGVIQRLTLQEHKMVWNRTTHLWNDCSKIIHQRTNTVPFDLVPHEDGVDVAVRVLKPLDSVDLGLETVYEKFHPSIQSFTDVIGHYISGERPKGIQETEEMLKVGATLTGVGELVLDNNSVRLQPPKQGMQYYLSSQDFDSLLQRQESSVRLWKVLALVFGFATCATLFFILRKQYLQRQERLRLKQMQEEFQEHEAQLLSRAKPEDRESLKSACVVCLSSFKSCVFLECGHVCSCTECYRALPEPKKCPICRQAITRVIPLYNS",sumoylation of NLRP3 by co-expressed MAPL,"FLAG-tagged human NLRP3; FLAG-NLRP3 purified under denaturing conditions, HEK293T, three independent experiments",sumoylated NLRP3
